Reference: patent US20090149496A1, “INHIBITORS OF THE TASK-1 AND TASK-3 ION CHANNEL” (SANOFI-AVENTIS DEUTSCHLAND GMBH, priority 2006, published 2009)
pIC50: −log10 of the molar value. Values joined by “and” are separate entries in the source; they are usually repeats but may differ in a detail not shown here. Equal entries are not always repeated. Structures can show the parent of a compound that is named as a salt.

Columns and labels:
TASK-1 = details: cited from earlier work; for Effect on the TASK-1 channel (in words): therapeutic concentrations, literature; for pIC50: stated in the literature, read-out: IC50 value, blocker of TASK-1
TASK1 (human) [1] = target: T1, TASK1 (human) (Homo sapiens, UniProt O14649); assay: Activity on the TASK-1 channel with the FLIPR technique on CHO cells; assay type: cell-based; set-up: expressed in transfected cells; host or cells: CHO cells; details: inhibition of human TASK-1 current, 10 μmol/l
From the text: B) Determination of the Activity on the TASK-1 Channel with the FLIPR Technique

TASK1 (mouse) = target: T2, TASK1 (mouse) (Mus musculus, UniProt O35111); assay: Activity on the TASK-1 channel in Xenopus oocytes (two-microelectrode voltage clamp), mouse channel; assay type: cell-based; details: mouse TASK-1 expressed in Xenopus oocytes, voltage jumps to 40 mV, pH 7.4, room temperature; read-out: IC50 (μmol) TASK1 (mouse)
T2 construct: expressed in transfected cells; host or cells: Xenopus laevis oocytes injected with in vitro synthesized RNA
Method: (§1) A) Determination of the Activity on the TASK-1 Channel in Xenopus Oocytes
(§2) Mouse or human TASK-1 channels were expressed in Xenopus oocytes. For this purpose, oocytes were first isolated from Xenopus levis and defolliculated. Subsequently, TASK-1-encoding RNA synthesized in vitro was injected into these oocytes. After two days of TASK-1 protein expression, TASK-1 currents were measured on the oocytes with the two-microelectrode voltage clamp technique. In this measurement, the TASK-1 channels were generally activated with voltage jumps lasting 250 ms to 40 mV. The bath was flushed with a solution of the following composition: NaCl 96 mM, KCl 2 mM, CaCl2 1.8 mM, MgCl2 1 mM, HEPES 5 mM (titrated to pH 7.4 with NaOH). These experiments were performed at room temperature. For data acquisition and analysis, the following were used: Geneclamp amplifier (Axon Instruments, Foster City, USA) and MacLab D/A converter and software (ADinstruments, Castle Hill, Australia). The inventive substances were tested by adding them to the bath solution in different concentrations. The effects of the substances were calculated as the percentage inhibition of the TASK-1 control current which was obtained when no substance was added to the solution. The data was subsequently fitted to the Hill equation in order to determine the half-maximum inhibitory concentrations (IC50 values) for the particular substances.

genioglossus muscle = assay: Electromyographic activity of the genioglossus muscle in narcotized rats; assay type: in vivo, rat
Method: (§3) E) Investigation of the Effect on the Electromyographic Activity of the Genioglossus Muscle and the Respiratory Minute Volume in Rats
(§4) The compound of example 1 (R-enantiomer) and of example 2 was investigated for electromyographic activity of the genioglossus muscle and for respiration-stimulating effect on male urethane-chloralose-narcotized, vagotomized rats with a weight of from 250 to 300 g. For this purpose, the genioglossus EMG activity was measured by means of EMG electrodes. The respiration-stimulating effect was investigated by measuring the respiratory minute volume by means of a tracheal cannula. For the investigations, the rats were administered intravenously successively with 1, 3 and 10 mg/kg of the compound of example 1 (R-enantiomer) and of example 2, with glycofurol (50%) as the vehicle, at 15 minute intervals. CO2 was used as the positive control for the stimulation of the genioglossus activity and of the respiratory minute volume.

respiration = assay: Respiratory minute volume in narcotized rats; assay type: in vivo, rat
Method: as §3, §4

TASK1 (human) [2] = target: T1, TASK1 (human); assay: Activity on the TASK-1 channel in Xenopus oocytes (two-microelectrode voltage clamp), human channel; assay type: cell-based; set-up: expressed in transfected cells; host or cells: Xenopus laevis oocytes injected with in vitro synthesized RNA; details: human TASK-1 expressed in Xenopus oocytes, voltage jumps to 40 mV, pH 7.4, room temperature; read-out: IC50 (μmol) TASK1 (human)
Method: as §1, §2

T1 sequence (O14649 whole entry): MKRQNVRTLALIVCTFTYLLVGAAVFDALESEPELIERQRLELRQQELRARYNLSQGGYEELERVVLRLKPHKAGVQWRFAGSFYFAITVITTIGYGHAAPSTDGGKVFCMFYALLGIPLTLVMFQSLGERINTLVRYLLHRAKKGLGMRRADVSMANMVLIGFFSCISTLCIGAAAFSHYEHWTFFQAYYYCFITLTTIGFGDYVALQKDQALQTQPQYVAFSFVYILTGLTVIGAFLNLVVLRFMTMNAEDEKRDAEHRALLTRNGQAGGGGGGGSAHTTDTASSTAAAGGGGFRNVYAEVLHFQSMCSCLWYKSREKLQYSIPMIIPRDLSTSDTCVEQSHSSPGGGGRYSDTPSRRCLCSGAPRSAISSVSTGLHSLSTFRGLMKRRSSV
T2 sequence (O35111 whole entry): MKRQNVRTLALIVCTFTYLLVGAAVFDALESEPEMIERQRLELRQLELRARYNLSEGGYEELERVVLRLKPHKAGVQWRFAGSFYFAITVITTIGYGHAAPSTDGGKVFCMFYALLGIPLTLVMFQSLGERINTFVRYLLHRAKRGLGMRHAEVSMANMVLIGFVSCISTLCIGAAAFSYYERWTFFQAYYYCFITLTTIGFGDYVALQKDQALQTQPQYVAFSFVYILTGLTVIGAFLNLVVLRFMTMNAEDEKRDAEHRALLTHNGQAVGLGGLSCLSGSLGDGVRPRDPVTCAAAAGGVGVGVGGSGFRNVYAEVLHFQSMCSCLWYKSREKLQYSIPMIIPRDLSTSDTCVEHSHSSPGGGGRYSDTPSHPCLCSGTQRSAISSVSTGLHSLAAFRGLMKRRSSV

Row | inhibition at 10 µM (TASK1 (human) [1]) [%] | pIC50 (TASK1 (mouse)) | SMILES | further results
1 | 57 | 5.97 | CN(CCc1ccccn1)C(=O)c1ccccc1-c1ccccc1CNC(=O)OCc1ccccc1 [Example 7, Benzyl {2′-[methyl-(2-pyridin-2-ylethyl)carbamoyl]biphenyl-2-ylmethyl}carbamate] | 
2 | 88 | 6.46 | COc1ccc(CC(=O)NCc2ccccc2-c2sccc2C(=O)NCc2ccc(F)cc2F)cc1 [Example 11, N-(2,4-Difluorobenzyl)-2-(2-{[2-(4-methoxyphenyl)acetyl-amino]methyl}phenyl)thiophene-3-carboxamide] | 
3 | 60 | 5.63 | COc1ccc(CC(=O)NCc2ccccc2-c2ccc(C(=O)NCc3ccc(F)cc3F)o2)cc1 [Example 9, N-(2,4-Difluorobenzyl)-5-(2-{[2-(4-methoxyphenyl)acetyl-amino]methyl}phenyl)furan-2-carboxamide] | 
4 | 73 | 5.47 | C[C@H](OC(=O)NCc1ccccc1-c1cccnc1C(=O)NCCc1ccccn1)c1ccccc1 [Example 12, (S)-1-Phenylethyl {2-[2-(2-pyridin-2-ylethylcarbamoyl)pyridin-3-yl]benzyl}carbamate] | 
5 | 61 | 5.92 | COc1ccc(CC(=O)NCc2ccccc2-c2occc2C(=O)NCCC(C)C)cc1 [Example 10, N-(3-methylbutyl)-2-(2-{[2-(4-methoxyphenyl)acetyl-amino]methyl}phenyl)furan-3-carboxamide] | 
6 | 70 | 5.74 | CC(C)CCNC(=O)c1cccc(-c2ccncc2CNC(=O)OCc2ccccc2)c1 [Example 15, Benzyl {4-[3-(3-methylbutylcarbamoyl)phenyl]pyridin-3-yl-methyl}carbamate] | 
7 | 50 | 5.54 | O=C(NCc1ccccc1-c1ncccc1C(=O)NCc1ccc(F)cc1F)OCc1ccccc1 [Example 14, Benzyl {2-[3-(2,4-Difluorobenzylcarbamoyl)pyridin-2-yl]benzyl}carbamate] | 
8 |  | 5.56 | COc1ccc(CCC(=O)NCc2ccccc2-c2cc(C(=O)NCCC(C)C)ccc2C)cc1 [Example 16, N-(3-Methylbutyl)-2′-{[3-(4-methoxyphenyl)propionylamino]methyl}-6-methylbiphenyl-3-carboxamide] | 
9 | 68 | 5.94 | COc1ccc(CC(=O)NCc2ccccc2-c2cc(Cl)ccc2C(=O)NCc2ccc(F)cc2F)cc1 [Example 6, N-(2,4-Difluorobenzyl)-5-chloro-2′-{[2-(4-methoxyphenyl)acetyl-amino]methyl}biphenyl-2-carboxamide] | 
10 | 77 | 6.26 | COc1ccc(CC(=O)NCc2ccccc2-c2ccsc2C(=O)NCc2ccc(F)cc2F)cc1 [Example 8, N-(2,4-Difluorobenzyl)-3-(2-{[2-(4-methoxyphenyl)acetyl-amino]methyl}phenyl)thiophene-2-carboxamide] | 

The next lines start with the compound.

Row | SMILES | inhibition at 10 µM (TASK1 (human) [1]) [%] | pIC50 (TASK1 (mouse)) | further results
11 | FC(F)(F)C(Cl)Br (stereo not shown) [halothane] |  |  | Effect on the TASK-1 channel (in words) (TASK-1): activation
12 | COc1ccc(CC(=O)NCc2ccccc2-c2ccccc2C(=O)NCCc2cccnc2)cc1 [Example 2, N-(2-pyridin-3-ylethyl)-2′-{[2-(4-methoxyphenyl)acetylamino]-methyl}biphenyl-2-carboxamide] | 77 | 6.37 | EMG activity of the genioglossus muscle (mean) (genioglossus muscle; 1 mg/kg intravenously): 3.15 arbitrary units; EMG activity of the genioglossus muscle (mean) (genioglossus muscle; 3 mg/kg intravenously): 3.55 arbitrary units; EMG activity of the genioglossus muscle (mean) (genioglossus muscle; 10 mg/kg intravenously): 3.82 arbitrary units; Effect on the electromyographic activity of the genioglossus muscle (in words) (genioglossus muscle; summary of tables 2 and 4): stimulate; Respiratory minute volume (mean) (respiration; 1 mg/kg intravenously): 253 mL/min; Respiratory minute volume (mean) (respiration; 3 mg/kg intravenously): 279 mL/min; Respiratory minute volume (mean) (respiration; 10 mg/kg intravenously): 291 mL/min; Effect on the respiratory minute volume (in words) (respiration; summary of tables 3 and 5): stimulate; pIC50 (TASK1 (human) [2]): 6.24
13 | CC[C@H](NC(=O)c1cc(OC)ccc1NS(=O)(=O)c1ccc(OC)cc1)c1ccccc1 [Example 4, (S)-5-Methoxy-2-(4-methoxybenzenesulfonylamino)-N-(1-phenylpropyl)benzamide] |  | 6.19 | 
14 | CC[C@H](NC(=O)c1cc(F)ccc1NS(=O)(=O)c1cccc2cccnc12)c1ccccc1 [Example 3, (S)-5-Fluoro-2-(quinoline-8-sulfonylamino)-N-(1-phenylpropyl)benzamide sodium salt] | 82 |  | 
15 | CCCCC/C=C\C/C=C\C/C=C\C/C=C\CCCC(=O)NCCO [anandamide] |  |  | pIC50 (TASK-1): 6.15
16 | CCCCC/C=C\C/C=C\C/C=C\C/C=C\CCCC(=O)N[C@H](C)CO [methanandamide] |  |  | pIC50 (TASK-1): 6.15
17 | CCN1CC(CCN2CCOCC2)C(c2ccccc2)(c2ccccc2)C1=O (stereo not shown) [doxapram] |  |  | pIC50 (TASK-1): 6.40
18 | FC(F)OC(Cl)C(F)(F)F (stereo not shown) [isoflurane] |  |  | Effect on the TASK-1 channel (in words) (TASK-1): activation
19 | C[C@H](OC(=O)NCc1ccccc1-c1ccccc1C(=O)NC[C@@H](C)O)c1ccccc1 [Example 5, N-(2-(R)-hydroxypropyl)-2′-(α-(S)-methylbenzyloxycarbonyl-aminomethyl)biphenyl-2-carboxamide] | 88 | 5.68 | 
20 | CCCCS(=O)(=O)Nc1ccccc1C(=O)N[C@@H](CC)c1ccc(OC)nc1 [Example 1 (S-enantiomer), 2-(butyl-1-sulfonylamino)-N-[1(S)-(6-methoxypyridin-3-yl)propyl]benzamide] | 58 | 6.10 | 
21 | O=C=O [CO2, reference compound] |  |  | EMG activity of the genioglossus muscle (mean) (genioglossus muscle; 5% CO2 positive control): 5.13 arbitrary units and 3.15 arbitrary units; Respiratory minute volume (mean) (respiration; 5% CO2 positive control): 237 mL/min and 209 mL/min
